Entries after “also recorded” stand apart in the source; their conditions may differ. Like-named read-outs stand apart in the source and are kept apart here.
Key:
NCS-1/Ric8a interaction = target: T1, NCS-1/Ric8a interaction (Homo sapiens, UniProt P62166); experiment: Co-immunoprecipitation assay of NCS-1/Ric8a interaction in transfected HEK293 cells; format: cell-based; conditions: for NCS-1/Ric8a interaction: HEK293 cells transfected with human Ric8a (V5 tag) and NCS1, IP with anti-NCS1, Western blot with anti-V5, DMSO lane = baseline; for modulatory activity: stated as the reason for modelling the compounds in Drosophila Frq2, underlying test not specified
T1 construct: expressed in transfected cells; host or cells: HEK293
Experimental: To identify compounds useful as modulators of the protein complex formed by NCS-1 and Ric8 (specifically as compounds useful for promoting NCS-1/Ric8a interaction), the experiment shown in Figure 1 was carried out. […] The DMSO lane represents baseline levels of NCS1/Ric8a interaction. IP was performed with anti-NCS1 antibodies, followed by the immunodetection of Ric8a in Western blot with the anti-V5 antibody.
(§1) • Figure 1. […] The DMSO lane represents […]. • Figure 2. […] The curves were fitted considering a stoichiometry of 1:1. For correct curve comparison, intensities were normalized and depicted as (I0 - I)/I0. X. The value of r^2 is 0.998. • Figure 3. […] The residues in which sequence differences are found are shown in pink. • Figure 4. These three figures show the pharmacophore group taking the compound A3H3 as an example. Specifically, groups A1, A2, and N6 (N) refer to the heteroatoms forming the central part of acylhydrazone commonly found in all the assayed compounds, in other words, the carbonyl (A1) bound to the N of amide (N6), which is in turn bound to another imine N (A2). The terms R7 (R) and R8 (R') refer to the aromatic rings which act as substituents. Both the carbonyl-bound R and the imine N-bound R are aromatic • Figure 5. […] Evaluation of the efficacy of compound A3H3 in a model for Huntington's disease. Wild-type mice WT and transgenic mice (HD) expressing exon 1 of human huntingtin (strain R6/1) were treated orally with compound A3H3 at a dose of 25 mg/kg. The treatment started at 3 months of age and lasted for 6 weeks. As a measurement of motor coordination, stride length (A) and the stay time on Rotarod (B) were analyzed.
In order to evaluate the capacity of the compounds of the invention, A3H3, A5H2, and A3H4, for modulating interaction between human NCS-1 and Ric8as, HEK293 cells were transfected with a version of epitope V5-labeled Ric8a (Ric8a-V5) and NCS-1, performing cell incubation and then cell lysis with the product to be assayed. The amount of NCS-1-bound Ric8a-V5 was then assessed by means of the immunoprecipitation technique.

dNCS-1 = target: T2, dNCS-1 (Drosophila melanogaster, UniProt Q9VWX8); experiment: Affinity for dNCS-1 by fluorescence spectroscopy; format: binding; conditions: for affinity in the fluorescence technique: additional fluorescence studies, result in words
T2 sequence (Q9VWX8 1-187): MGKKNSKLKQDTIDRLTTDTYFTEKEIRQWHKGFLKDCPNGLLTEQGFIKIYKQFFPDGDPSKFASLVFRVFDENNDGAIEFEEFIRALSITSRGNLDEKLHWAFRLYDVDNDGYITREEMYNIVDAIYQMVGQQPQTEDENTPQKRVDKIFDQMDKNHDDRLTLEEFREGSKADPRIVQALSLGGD
From the text: The protein complex formed by NCS-1 and Ric8 regulates the number of synapses and neurotransmitter release probability, so it is considered a good therapeutic target for the treatment of diseases in which the synapse is impaired. Based on fluorescence spectroscopy studies, the affinity of compounds for dNCS-1 (neuronal calcium sensor of Drosophila) has been proven. Neuronal calcium sensor NCS-1 is a protein the sequence of which is conserved from yeasts to humans.
The affinity of the compounds for dNCS-1 was measured by means of the fluorescence spectroscopy technique. The emission intensity of the complex is analyzed, where the signal is monitored at increasing concentrations of ligand (1:0 to 1:30 equivalents), keeping the protein concentration […], 30.8 µM, 1 eq.) constant. The affinity constant is thereby obtained through the apparent disassociation constant. […] The experiments are performed at 5°C with dNCS-1 in 50 mM Tris buffer, pH 7.9, 125 mM NaCl, 0.5 mM CaCl2 with 5% DMSO in a total volume of 300 µL. The experiment is performed at the excitation wavelength of 295 nm and at the emission wavelength of 345 nm (maximum emission) depending on the compound in a Jobin Yvon Floromax4 spectrofluorometer equipped with a Peltier Thermostat; the obtained values are the result of the normalized average of the three repetitions for each measurement. […] The affinity constants found for the tested compounds are as follows: […]

[1] = system: flies overexpressing human aβ42arc (D42Gal4> aβ42arc); experiment: Number of synapses in a Drosophila melanogaster model for Alzheimer's disease; format: in vivo; conditions: flies fed with 100 µM throughout the entire life cycle; adult abdominal motor neurons of 20 days; nc82-positive points, confocal images; vs DMSO
Experimental: It has been described above that the expression of the human aβ42arc peptide (Arctic mutation) in motor neurons leads to a reduction in the number of synapses with respect to normal neuromuscular junctions in individuals of the same age, therefore, flies overexpressing human aβ42arc (D42Gal4> aβ42arc) were fed with 100 µM compound A3H3 or with the same amount of solvent, DMSO, throughout the entire life cycle. Adult abdominal motor neurons of 20 days were analyzed and the number of synapses (nc82-positive points) was determined in different flies using confocal images.

[2] = system: Flies overexpressing aβ42arc (D42Gal4> aβ42arc) in their motor neurons; experiment: Locomotor activity in a Drosophila melanogaster model for Alzheimer's disease (Drosophila activity monitors); format: in vivo; conditions: D42Gal4> aβ42arc flies fed 100 µM; total number of beam breaks per hour, two consecutive days; vs DMSO
Experimental: As mentioned, overexpression of the human aβ42arc peptide in the motor neurons of Drosophila melanogaster causes synapse loss and this correlates with a severe locomotor dysfunction. Flies overexpressing aβ42arc (D42Gal4> aβ42arc) in their motor neurons or overexpressing the control (D42Gal4> LacZ) were fed with compound A3H3 at a concentration of 100 µM or with DMSO using the same concentration. Fly locomotor activity was recorded in Drosophila activity monitors (DAM2, Trikinetics) and the total number of beam breaks per hour was analyzed for two consecutive days.

[3] = system: transgenic mice (HD) expressing exon 1 of human huntingtin (strain R6/1); experiment: Motor coordination in a mouse model for Huntington's disease; format: in vivo; conditions: oral, 25 mg/kg, start at 3 months of age, after 6 weeks, significant differences with respect to the rest of groups
From the text: as §1

[4] = apparent dissociation constant, 5°C, 50 mM Tris buffer pH 7.9, 125 mM NaCl, 0.5 mM CaCl2, 5% DMSO, excitation 295 nm, emission 345 nm, three repetitions, read-out: Kd

T1 sequence (P62166 2-190 limits assumed): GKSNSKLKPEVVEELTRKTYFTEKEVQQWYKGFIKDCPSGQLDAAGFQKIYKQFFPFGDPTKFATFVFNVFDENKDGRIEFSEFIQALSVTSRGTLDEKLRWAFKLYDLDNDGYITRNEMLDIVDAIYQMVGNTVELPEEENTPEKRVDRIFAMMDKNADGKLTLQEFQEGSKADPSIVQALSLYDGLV
T1 sequence (Q9NPQ8 whole entry partner): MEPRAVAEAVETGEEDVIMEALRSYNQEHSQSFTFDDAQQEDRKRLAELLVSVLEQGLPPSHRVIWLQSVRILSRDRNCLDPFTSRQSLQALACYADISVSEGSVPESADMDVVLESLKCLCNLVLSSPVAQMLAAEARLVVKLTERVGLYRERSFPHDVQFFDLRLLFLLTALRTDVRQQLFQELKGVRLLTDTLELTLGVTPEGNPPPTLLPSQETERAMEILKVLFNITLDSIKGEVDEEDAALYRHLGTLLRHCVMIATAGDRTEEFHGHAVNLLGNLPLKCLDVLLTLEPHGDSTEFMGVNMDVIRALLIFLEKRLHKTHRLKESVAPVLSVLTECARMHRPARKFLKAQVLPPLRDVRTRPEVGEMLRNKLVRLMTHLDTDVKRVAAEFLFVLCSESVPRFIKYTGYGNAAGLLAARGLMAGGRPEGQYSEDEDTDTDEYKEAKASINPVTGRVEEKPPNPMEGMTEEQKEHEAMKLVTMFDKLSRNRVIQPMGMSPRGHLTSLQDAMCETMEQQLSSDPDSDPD

| NCS-1/Ric8a interaction (NCS-1/Ric8a interaction) | Kd (dNCS-1; [4]) | SMILES | other results |
| --- | --- | --- | --- |
|  | 4 ± 1 µM | O=C(NN=Cc1cc(F)ccc1[N+](=O)[O-])c1cccs1 (mixture of isomers) [A7H8, (E/Z)-N'-(5-fluoro-2-nitrobenzylidene)thiophene-2-carbohydrazide] |  |
|  | 25 ± 4 µM | O=C(N/N=C/c1cc(F)ccc1[N+](=O)[O-])c1ccco1 [A7H2, (E)-N'-(5-fluoro-2-nitrobenzylidene)furan-2-carbohydrazide] | modulatory activity (NCS-1/Ric8a interaction): exhibited modulatory activity |
| promoted NCS-1/Ric8a interaction | 7 ± 1 µM | O=C(N/N=C/c1cc([N+](=O)[O-])ccc1F)c1ccco1 [A8H2, (E)-N'-(2-fluoro-5-nitrobenzylidene)furan-2-carbohydrazide] |  |

Continued, compound first:

| SMILES | NCS-1/Ric8a interaction (NCS-1/Ric8a interaction) | Kd (dNCS-1; [4]) | other results |
| --- | --- | --- | --- |
| O=C(Cc1c[nH]c2ccccc12)NN=Cc1ccc([N+](=O)[O-])c(O)c1 (mixture of isomers) [A3H3, (E/Z)-N'-(3-hydroxy-4-nitrobenzylidene)-2-(1H-indol-3-yl)acetohydrazide] | allows interaction with Ric8-a; also recorded: promoted NCS-1/Ric8a interaction | 43 ± 6 µM | increase of the binding of NCS-1 with Ric8a (NCS-1/Ric8a interaction; HEK293 cells transfected with Ric8a-V5 and NCS-1, amount of NCS-1-bound Ric8a-V5 by immunoprecipitation): more than two fold; modulatory activity (NCS-1/Ric8a interaction): exhibited modulatory activity; pathological reduction of the synapse count [1]: greatly suppressed; locomotor impairment due to overexpression of aβ42arc [2]: thoroughly improved; stay time on Rotarod [3]: the same cannot be said; stride length [3]: the same cannot be said |
| O=C(NN=Cc1ccc([N+](=O)[O-])c(O)c1)c1cc2ccccc2cc1O (mixture of isomers) [A3H19, (E/Z)-3-hydroxy-N'-(3-hydroxy-4-nitrobenzylidene)-2-naphthohydrazide] | promoted NCS-1/Ric8a interaction |  |  |
| O=C(NN=Cc1ccc(Cl)c([N+](=O)[O-])c1)c1cccs1 (mixture of isomers) [A5H8, (E/Z)-N'-(4-chloro-3-nitrobenzylidene)thiophene-2-carbohydrazide] |  |  | Kd (dNCS-1): 19 ± 8 µM |
| O=C(NN=Cc1ccc([N+](=O)[O-])c(O)c1)C(O)c1ccccc1 (racemic) [A3H6, (±)-(E/Z)-2-hydroxy-N'-(3-hydroxy-4-nitrobenzylidene)-2-phenylacetohydrazide] | promoted NCS-1/Ric8a interaction |  |  |
| O=C(N/N=C/c1ccc([N+](=O)[O-])c(O)c1)c1ccco1 [A3H2, (E)-N'-(3-hydroxy-4-nitrobenzylidene)furan-2-carbahydrazide] |  | 32 ± 2 µM |  |
| COCCC(=O)N/N=C/c1ccc([N+](=O)[O-])c(O)c1 [A3H4, (E)-N'-(3-hydroxy-4-nitrobenzylidene)-3-methoxypropanehydrazide] | allows interaction with Ric8-a |  |  |
| CC(C)(C)c1ccc(C(=O)N/N=C/c2ccc([N+](=O)[O-])c(O)c2)cc1 [A3H17, (E)-4-(tert-butyl)-N'-(3-hydroxy-4-nitrobenzylidene)benzohydrazide] | promoted NCS-1/Ric8a interaction |  |  |
| O=C(N/N=C\c1ccc([N+](=O)[O-])c(O)c1)c1ccc(Cl)s1 [A3H18, (Z)-5-chloro-N'-(3-hydroxy-4-nitrobenzylidene)thiophene-2-carbohydrazide] | promoted NCS-1/Ric8a interaction |  |  |
| O=C(Cc1c[nH]c2ccccc12)NN=Cc1ccc2ccccc2c1[N+](=O)[O-] [A4H3] |  |  | affinity in the fluorescence technique (dNCS-1): without yielding any positive results |
| O=C(NN=Cc1ccc2ccccc2c1[N+](=O)[O-])C(O)c1ccccc1 (stereo not drawn) [A4H6] |  |  | affinity in the fluorescence technique (dNCS-1): without yielding any positive results |
| O=C(NN=Cc1ccc2ccccc2c1[N+](=O)[O-])c1cccs1 [A4H8] |  |  | affinity in the fluorescence technique (dNCS-1): without yielding any positive results |
| O=C(N/N=C\c1ccc(Cl)c([N+](=O)[O-])c1)c1ccco1 [A5H2, (Z)-N'-(4-chloro-3-nitrobenzylidene)furan-2-carbohydrazide] | allows interaction with Ric8-a; also recorded: promoted NCS-1/Ric8a interaction | 3.2 ± 0.3 µM |  |
| O=C(NN=Cc1ccc(Cl)c([N+](=O)[O-])c1)C(O)c1ccccc1 (stereo not drawn) [A5H6] |  | 3.2 ± 0.3 µM | modulatory activity (NCS-1/Ric8a interaction): exhibited modulatory activity |

— patent EP3858342A1, “ACYLHYDRAZONES FOR THE TREATMENT OF NEUROLOGICAL DISEASES” (Consejo Superior de Investigaciones Científicas (CSIC), priority 2018, dated 2020)
